Measured values: US20230040081A1 (priority 2019, published 2023)
Several values for one entry are separate records, joined by “and”; a condition that tells them apart may be missing. Equal entries are not always repeated.

How the values were obtained:
[1] = tested on: viral RNA polymerase; assay: Potential inhibitors: Results Screen; type: biochemical; settings: test concentration not given
Method: (§1) Compound stocks were prepared at a concentration of 1 mM in 65% DMSO, at a volume of 5 μL each.

[2] = tested on: viral RNA polymerase; assay: Potential inhibitors: Results Hit validation; type: biochemical; settings: test concentration not given
Method: as §1

[3] = tested on: Clopt1 (Vaccinia virus); type: cell-based
[4] = tested on: Clopt1 (Vaccinia virus); type: cell-based; remark: listed apart in the source
[5] = target: Vaccinia RNA polymerase core enzyme (Rpo147/Rpo132/Rpo35/Rpo30/Rpo22/Rpo19/Rpo18/Rpo7) (Vaccinia virus (GLV-1h439, Lister …, UniProt P07392;Q76ZP7;P24757;P21603;P68609;P68611;P04310;P68317 …)); assay: structure; settings: tags: HA/FLAG C-terminal on Rpo132

O=C(CCc1ccc(O)cc1)CC(CCc1ccc(O)cc1)OC1O[C@@H](COC(=O)/C=C/c2ccc(O)cc2)[C@H](O)[C@@H](O)[C@@H]1O (some centres unmarked) [AD153413-07_H11]
Results Screen Median Screen (% inhibition) [1]: 70 % inhibition | Results Hit validation Median (% inhibition) [2]: 45.2 % inhibition

C=C(/C=C/[C@@H](CCC(=O)O)C(C)C)CCC(C)=O [AD153413-08_B4]
Results Screen Median Screen (% inhibition) [1]: 73.6 % inhibition | Results Hit validation Median (% inhibition) [2]: 41.9 % inhibition

O=C(/C=C/c1ccc(O)c2c1C(C(=O)O)C(c1ccc(O)c(O)c1)O2)OC(Cc1ccc(O)c(O)c1)C(=O)O (centres unmarked) [AD153413-16_E3]
Results Screen Median Screen (% inhibition) [1]: 77.7 % inhibition | Results Hit validation Median (% inhibition) [2]: 55.9 % inhibition

CC(O)CC1CCC(C(C)C(=O)OC(C)CC2CCC(C(C)C(=O)O)O2)O1 (centres unmarked) [AD153413-16_A3]
Results Screen Median Screen (% inhibition) [1]: 83 % inhibition | Results Hit validation Median (% inhibition) [2]: 44.5 % inhibition

COc1cc(C2c3c(cc(OC)c(O)c3O)CC(CO)C2CO[C@H]2O[C@@H](C(=O)O)[C@H](O)[C@@H](O)[C@@H]2O)cc(OC)c1O (some centres unmarked) [AD153413-11_A11]
Results Screen Median Screen (% inhibition) [1]: 83 % inhibition | Results Hit validation Median (% inhibition) [2]: 57.1 % inhibition

C/C=C/c1ccc2c(c1)[C@H](C)[C@@H](c1ccc(O)cc1)O2 [AD153413-19_H4]
Results Screen Median Screen (% inhibition) [1]: 98.8 % inhibition | Results Hit validation Median (% inhibition) [2]: 50.8 % inhibition

CC1(C)C2CC[C@]3(C)C(C(=O)C=C4[C@H]5C[C@@](C)(C(=O)O)CC[C@]5(C)CC[C@]43C)[C@@]2(C)CC[C@@H]1O (some centres unmarked) [AD153413-01_B11]
Results Screen Median Screen (% inhibition) [1]: 75.6 % inhibition | Results Hit validation Median (% inhibition) [2]: 72.1 % inhibition

COc1cc(-c2oc3cc(O[C@H]4O[C@@H](CO)[C@H](O)[C@@H](O)[C@@H]4O)c(OC)c(O)c3c(=O)c2OC)ccc1O [AD153413-17_A6]
Results Screen Median Screen (% inhibition) [1]: 77.1 % inhibition | Results Hit validation Median (% inhibition) [2]: 62.2 % inhibition

COC(=O)C1=COC(OC2O[C@@H](CO)[C@H](O)[C@@H](O)[C@@H]2O)[C@H]2C1C=CC21C=C(C(C)CC(=O)/C=C/c2ccc(O)cc2)C(=O)O1 (some centres unmarked) [AD153413-23_G3]
Results Screen Median Screen (% inhibition) [1]: 60.5 % inhibition | Results Hit validation Median (% inhibition) [2]: 61.7 % inhibition

CC(=O)O[C@H]1CC[C@]2(C)C(CC[C@@]3(C)C2[C@@H](O)C=C2[C@@H]4[C@H](C)[C@@H](C)CC[C@@]4(C)CC[C@@]23C)[C@]1(C)C(C)=O (some centres unmarked) [AD153413-25_A8]
Results Screen Median Screen (% inhibition) [1]: 73.8 % inhibition | Results Hit validation Median (% inhibition) [2]: 86.3 % inhibition

NC(=O)c1c[nH]c(Cc2ccccc2)cc1=O [AD153413-06_B9]
Results Screen Median Screen (% inhibition) [1]: 80 % inhibition | Results Hit validation Median (% inhibition) [2]: 42.9 % inhibition

CCC(C)C(=O)O[C@H]1CCC=C2C=C[C@H](C)[C@H](CC[C@@H](O)C[C@@H](O)CC(=O)O)[C@H]21 (some centres unmarked) [AD153413-09_E2]
Results Screen Median Screen (% inhibition) [1]: 90.3 % inhibition | Results Hit validation Median (% inhibition) [2]: 60.5 % inhibition

CC(=O)O[C@H]1C[C@@H](O)[C@]23COC(O)[C@@]1(C)C2C[C@H](O)[C@@]1(C)C3C(=O)[C@@H](OC(C)=O)[C@]2(C)[C@@H](c3ccoc3)C[C@@H]3O[C@@]321 (some centres unmarked) [AD153413-19_D3]
Results Screen Median Screen (% inhibition) [1]: 71.8 % inhibition | Results Hit validation Median (% inhibition) [2]: 41.6 % inhibition

O=C(OC[C@@H]1O[C@H](Oc2ccc(O)cc2CO)[C@@H](O)[C@H](O)[C@H]1O)c1ccccc1 (racemic) [AD153413-11_H9]
Results Screen Median Screen (% inhibition) [1]: 60.5 % inhibition | Results Hit validation Median (% inhibition) [2]: 54.9 % inhibition

COc1ccc2c(c1)OC1c3ccc(OC)cc3OCC21 (centres unmarked) [AD153413-01_A10]
Results Screen Median Screen (% inhibition) [1]: 84.5 % inhibition | Results Hit validation Median (% inhibition) [2]: 77.6 % inhibition

CC[C@H](C1=C(O)C(C)(C)C(=O)C(C)(C)C1=O)c1c(O)cc(O)c(C(=O)C(C)C)c1O [AD153413-09_B9]
Results Screen Median Screen (% inhibition) [1]: 85.2 % inhibition | Results Hit validation Median (% inhibition) [2]: 61.5 % inhibition

COC(=O)[C@H](Cc1ccccc1)NC(=O)c1ccccc1 [AD153413-18_A11]
Results Screen Median Screen (% inhibition) [1]: 81 % inhibition | Results Hit validation Median (% inhibition) [2]: 60.6 % inhibition

CC1=C[C@H](C/C(C)=C/COc2c3occc3cc3ccc(=O)oc23)OC1=O [AD153413-25_H9]
Results Screen Median Screen (% inhibition) [1]: 79.1 % inhibition | Results Hit validation Median (% inhibition) [2]: 51.1 % inhibition

C[C@]1(C(=O)O)CC[C@@]2(C)CC[C@@]3(C)C4=CC(=O)c5cc(O)c(O)cc5[C@@]4(C)CC[C@]3(C)[C@H]2C1 [AD153413-04_H6]
Results Screen Median Screen (% inhibition) [1]: 77 % inhibition | Results Hit validation Median (% inhibition) [2]: 52.2 % inhibition

CC[C@H](C)/C=C(C)/C=C/C(=O)Cc1cc(O)c(C)c(O)c1C=O [AD153413-17_A5]
Results Screen Median Screen (% inhibition) [1]: 71 % inhibition | Results Hit validation Median (% inhibition) [2]: 70.9 % inhibition

CC1(C)CCC[C@@]2(C)[C@H]1[C@H](O)C=C1COC(=O)[C@]12O (racemic) [AD153413-10_B3]
Results Screen Median Screen (% inhibition) [1]: 60.9 % inhibition | Results Hit validation Median (% inhibition) [2]: 43.3 % inhibition

CC1CCC2(C)CCC3(C)C(=CCC4C5(C)CCC(O)C(C)(C(=O)O)C5CCC43C)C2C1C (centres unmarked) [AD153413-25_A7]
Results Screen Median Screen (% inhibition) [1]: 85.9 % inhibition | Results Hit validation Median (% inhibition) [2]: 70 % inhibition

CCCCC(C)C(=O)C(CC(C)CCCCCCC(O)CC(O)C(C)NC(C)=O)OC(=O)CC(CC(=O)O)C(=O)O (centres unmarked) [AD153413-12_D11]
Results Screen Median Screen (% inhibition) [1]: 73.7 % inhibition | Results Hit validation Median (% inhibition) [2]: 50.1 % inhibition

OC[C@@H]1O[C@H](Oc2ccc(O)c3cccc(O)c23)[C@@H](O)[C@H](O)[C@H]1O [AD153413-14_C5]
Results Screen Median Screen (% inhibition) [1]: 63.3 % inhibition | Results Hit validation Median (% inhibition) [2]: 52.6 % inhibition

CCCCCCCC/C(=C/CC(=O)O)C(=O)O [AD153413-16_C3]
Results Screen Median Screen (% inhibition) [1]: 84.3 % inhibition | Results Hit validation Median (% inhibition) [2]: 40.5 % inhibition

COc1cc(C)cc(C(=O)O)c1C1=C(O)C(=O)c2c(O)cccc2C1=O [AD153413-06_A10]
Results Screen Median Screen (% inhibition) [1]: 72.4 % inhibition | Results Hit validation Median (% inhibition) [2]: 64.1 % inhibition

COc1cc(O)c2c(c1)C(O)C(C)OC2=O (centres unmarked) [AD153413-16_B4]
Results Screen Median Screen (% inhibition) [1]: 72.5 % inhibition | Results Hit validation Median (% inhibition) [2]: 53.6 % inhibition

NC(=O)CC[C@H](N)C(=O)O [glutamine, L-glutamine]
Factor [3]: 1222 and 1468 and 1774 and 2000 | virus replication, times higher with glutamine in the third medium switch than negative counterparts [3]: more than 1000 times | intensity, times lower without glutamine in the third medium switch than counterparts [4]: roughly 100 times | final intensity, times lower in glutamine absence than in glutamine fed samples ([4]; after 21 hours): over 100 times

O=C(O)/C=C/c1ccccc1O[C@H]1O[C@@H](CO)[C@H](O)[C@@H](O)[C@@H]1O [AD153413-02_F8]
Results Screen Median Screen (% inhibition) [1]: 86.7 % inhibition | Results Hit validation Median (% inhibition) [2]: 44 % inhibition

COc1cc(OC)cc([C@@H](C)C(=O)c2ccc(O)cc2O)c1 [AD153413-09_A6]
Results Screen Median Screen (% inhibition) [1]: 81.1 % inhibition | Results Hit validation Median (% inhibition) [2]: 64.2 % inhibition

O=C1c2ccc(O)cc2O[C@H](c2ccc(O)c(O)c2)[C@H]1O [AD153413-21_A6]
Results Screen Median Screen (% inhibition) [1]: 68.8 % inhibition | Results Hit validation Median (% inhibition) [2]: 54.7 % inhibition

Oc1cc(O)cc(CCC/C=C\CCCCCCCCCc2cc(O)cc(O)c2)c1 [AD153413-03_H2]
Results Screen Median Screen (% inhibition) [1]: 73.1 % inhibition | Results Hit validation Median (% inhibition) [2]: 48.9 % inhibition

COc1ccc(CCC(=O)O)cc1 [AD153413-03_F11]
Results Screen Median Screen (% inhibition) [1]: 70.6 % inhibition | Results Hit validation Median (% inhibition) [2]: 41.8 % inhibition

COc1cc(O)c2c(=O)c(O[C@H]3O[C@H](C)[C@@H](O)[C@H](O)[C@@H]3O)c(-c3ccc(O)cc3)oc2c1O [AD153413-05_B3]
Results Screen Median Screen (% inhibition) [1]: 72.4 % inhibition | Results Hit validation Median (% inhibition) [2]: 43.6 % inhibition

CC(C)C1NC(=O)C2CCCN2C1=O (centres unmarked) [AD153413-12_C11]
Results Screen Median Screen (% inhibition) [1]: 61.7 % inhibition | Results Hit validation Median (% inhibition) [2]: 44.2 % inhibition

C=C(C)C1=C[C@@]2(C)C(=CC1=O)CC[C@@H](O)[C@@H]2C [AD153413-10_F2]
Results Screen Median Screen (% inhibition) [1]: 80 % inhibition | Results Hit validation Median (% inhibition) [2]: 50.8 % inhibition

COc1cc(C2OC(c3cc(OC)c(OC)c(OC)c3)C(C)C2C)cc(OC)c1OC (centres unmarked) [AD153413-14_E9]
Results Screen Median Screen (% inhibition) [1]: 67.1 % inhibition | Results Hit validation Median (% inhibition) [2]: 43.8 % inhibition

CCC(C)C(=O)OC1CC(C)C=C2C=CC(C)C(CCC(O)CC(O)CC(=O)O)C21 (centres unmarked) [AD153413-16_G9]
Results Screen Median Screen (% inhibition) [1]: 87.4 % inhibition | Results Hit validation Median (% inhibition) [2]: 64.7 % inhibition

COc1cc(-c2cc(=O)c3c(O)c(C4OC(CO)C(O)C(OC5OC(CO)C(O)C(O)C5OC5OC(CO)C(O)C(O)C5O)C4OC(=O)/C=C/c4ccc(O)c(O)c4)c(O)cc3o2)ccc1O (centres unmarked) [AD153413-17_A4]
Results Screen Median Screen (% inhibition) [1]: 69.6 % inhibition | Results Hit validation Median (% inhibition) [2]: 52.3 % inhibition

CC(=O)OC1CC2C(COC(=O)CC(C)C)=CO[C@H](OC(=O)CC(C)C)C2C12CO2 (some centres unmarked) [AD153413-09_A3]
Results Screen Median Screen (% inhibition) [1]: 89.7 % inhibition | Results Hit validation Median (% inhibition) [2]: 55.9 % inhibition

B1: vRNAP elongation scaffold (template DNA/non-template DNA/RNA) (mixed)
DNA 1: GACTTATGATCGGATAAGAGTCCAGCCAATGACAGATGCCTCATAGCC
DNA 2: GGCTATGAGGCATCCCATGCGTTGAGGACTCTTATCCGATCATAAGTC
RNA: GAGUUGUAAUAACAAGGGAAAUGUCAUUGGC
modifications: RNA 5'-triphosphate
binding result [5]: binds
